Results reported in patent US20250388896A1, “COMPOSITION AND METHODS FOR TRANSGENE INSERTION” (ARTISAN DEVELOPMENT LABS, INC, priority 2022, published 2025).

Experiments:
AAVS1 = assay: CAR insertion efficiency at AAVS1 in primary T-cells by flow cytometry; type: cell-based, human; details: primary Pan T-cells; recovery medium pretreated with 2 μM M3814; 75:50 pmol gNA:MAD7, 1.5 μg μL^−1 donor template, PGA
Method: T-cells were isolated from human peripheral blood obtained from healthy adults by immune-magnetic negative selection using the EasySep Human T-cell Isolation Kit ([sequence] Technologies). After isolation, T-cells were activated in 25 μL mL^−1 ImmunoCult Human CD3/CD28/CD2 T-Cell Activator ([sequence] Technologies) in ImmunoCult-XF T-Cell Expansion Medium ([sequence] Technologies) containing 12.5 ng mL^−1 Human Recombinant IL-2, 5 ng mL^−1 IL-7, and 5 ng mL^−1 IL-15 ([sequence] Technologies) and seeded at 1.0×10^6 cells mL^−1. Until transfection 48 hours later, the cells were cultured at 37° C. in 5% CO2 incubators.
Donor templates comprising site-specific homology arms, respective promoter, and respective gene (GFP or Hu19 scFv-CD8α-CD28-CD3ζ CAR) were amplified from corresponding pTwist Ampicillin high-copy plasmids (Twist Bioscience) using homology arms-specific PCR primers. […] Purified HDR templates were collected and quantified on NanoDrop One Microvolume UV-Vis Spectrophotometer (ThermoFisher Scientific). […] HDR templates were collected, diluted, and concentrations quantified using Qubit dsDNA HS Assay Kit (ThermoFisher Scientific). […]

AAVS1 locus = assay: INDEL frequency at the AAVS1 locus in Jurkat cells; type: cell-based, human
Method: Ribonucleoprotein complexes (RNPs) were generated by incubating respective guide nucleic acids (gNAs) with MAD7 in the molar ratio of 3:2 gNA:MAD7 for 15 minutes at room temperature immediately before transfection. For Jurkat experiments, the RNP complexes were generated by mixing the respective gNA (150 pmol), MAD7 (100 pmol), and nuclease-free water, unless otherwise stated. […] Lonza 4D Nucleofector with Shuttle unit (V4SC-2960 Nucleocuvette Strips) was used for transfection, following the manufacturer's instructions. […] Extracted genomic DNA was quantified using the NanoDrop (ThermoFisher Scientific). […] The DNA was eluted from the beads with nuclease-free water and the size of the purified amplicons analyzed on a 2% agarose E-gel using the E-gel electrophoresis system (ThermoFisher Scientific). In the second PCR, unique pairs of Illumina-compatible indexes (Nextera XT Index Kit v2) were added to the amplicons using the KAPA HiFi HotStart Ready Mix (Roche). […] Sizes of the purified DNA fragments were validated on a 2% agarose gel using the E-gel electrophoresis system (ThermoFisher Scientific), quantified using Qubit dsDNA HS Assay Kit (Thermo Fisher) and then pooled in equimolar concentrations. […] The final library was sequenced on Illumina MiSeq System using the MiSeq Reagent Kit v.2 (300 cycles, 2×250 bp, paired-end reads). […]

| Compound | more efficient CAR insertion than other experiments (AAVS1) [times] | activity of gNA targeting AAVS1 (INDEL frequency) (AAVS1 locus) |
| --- | --- | --- |
| COc1ccc([C@@H](O)c2cc(-c3ncnc4cc(N5CCOCC5)ccc34)c(F)cc2Cl)nn1 [M3814] | ~5 |  |
| crAAVS1: highly active gNA targeting the AAVS1 safe-harbor locus (guide TTAGGATGGCCTTCTCCGACG; listed as DNA, further chemistry not given here) |  | highly active |
